{
  "source": "paper PMC7930564",
  "about": "“First Case of Glyphosate Resistance in Bromus catharticus Vahl.: Examination of Endowing Resistance Mechanisms” (Frontiers in Plant Science, 2021)",
  "system": "T1, EPSPS (5-enolpyruvylshikimate-3-phosphate synthase), glyphosate-resistant (R) population",
  "T1 construct": "native enzyme in leaf extract (total soluble protein) of R plants, not recombinant; no target-site substitution at codons 101, 102, 103, 106, 144, 192; homoeologous copies not resolved",
  "assay": "phosphate release, EnzChek Phosphate Assay Kit, […] nm, leaf extract",
  "assay_type": "biochemical, Bromus catharticus",
  "settings": "substrates phosphoenolpyruvate and shikimate-3-phosphate; glyphosate 0 to 5,000 μM; Figure 6 legend fit prints 0.16; read-out: I50",
  "data": [
    {"smiles": "O=C(O)CNCP(=O)(O)O", "note": "[glyphosate, N-phosphonomethyl glycine]", "values": [
      {"measurement": "IC50", "value": 150, "unit": "nM"}
    ]}
  ]
}
